Test results from patent US9980943B2, “Methods of treating muscular dystrophy” (BOARD OF REGENTS OF THE NEVADA SYSTEM OF HIGHER EDUCATION, …, priority 2013, dated 2018).

Tests used:
Format in all cases: cell-based, mouse
[1] = tested on: α7 integrin (LacZ reporter in α7βgal+/− myoblasts); assay: Myoblast α7+/LacZ integrin FDG assay (Burkin assay in myoblasts, 96-well); details: α7+/LacZ myoblasts, 96-well
[2] = tested on: α7 integrin (LacZ reporter in α7+/LacZ myotubes); assay: Myotube α7 integrin FDG assay (Burkin assay in myotubes, 96-well); details: myotubes
[3] = tested on: β-galactosidase in CMV-LacZ C2C12 myotubes; assay: CMV-LacZ secondary screen in C2C12 myotubes (β-Gal stabilizing assay); details: for CMV-LACZ in Myotubes, signal relative to DMSO: C2C12 CMV-LacZ myotubes, fold relative to DMSO; for CMV-LACZ in Myotubes (β-galactosidase activity relative to DMSO): CMV-LacZ C2C12 myotubes, 96-well format
How it was run: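 Stable CMV-LacZ C2C12 clone; six-point curve 0.5–40 μM; duplicates.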

Structure (SMILES): O=C(O)c1cc(N=Cc2c(O)c3ccccc3oc2=O)ccc1O [MLS001216260-01]
- Burkin Assay in Myoblasts, signal relative to DMSO ([1]; 0.5 uM): 1.0145
- Burkin Assay in Myoblasts, signal relative to DMSO ([1]; 1 uM): 0.984
- Burkin Assay in Myoblasts, signal relative to DMSO ([1]; 5 uM): 0.8531
- Burkin Assay in Myoblasts, signal relative to DMSO ([1]; 10 uM): 0.8798
- Burkin Assay in Myoblasts, signal relative to DMSO ([1]; 20 uM): 0.8781
- Burkin Assay in Myoblasts, signal relative to DMSO ([1]; 40 uM): 0.8933
- Burkin Assay in Myotubes, α7 integrin LacZ reporter signal relative to DMSO ([2]; 0.5 uM): 1.005
- Burkin Assay in Myotubes, α7 integrin LacZ reporter signal relative to DMSO ([2]; 1 uM): 0.9893
- Burkin Assay in Myotubes, α7 integrin LacZ reporter signal relative to DMSO ([2]; 5 uM): 1.16
- Burkin Assay in Myotubes, α7 integrin LacZ reporter signal relative to DMSO ([2]; 10 uM): 1.06
- Burkin Assay in Myotubes, α7 integrin LacZ reporter signal relative to DMSO ([2]; 20 uM): 0.9144
- Burkin Assay in Myotubes, α7 integrin LacZ reporter signal relative to DMSO ([2]; 40 uM): 0.9348
- CMV-LACZ in Myotubes, signal relative to DMSO ([3]; 5 uM): 0.8516
- CMV-LACZ in Myotubes, signal relative to DMSO ([3]; 10 uM): 1.031
- CMV-LACZ in Myotubes, signal relative to DMSO ([3]; 20 uM): 1.09
- CMV-LACZ in Myotubes, signal relative to DMSO ([3]; 40 uM): 0.8367

Structure (SMILES): COc1ccc(-c2csc3ncnc(N4CCN(c5ccccc5[N+](=O)[O-])CC4)c23)cc1 [MLS001149811-01]
- Burkin Assay in Myoblasts, value relative to DMSO ([1]; 0.5 uM): 0.6497
- Burkin Assay in Myoblasts, value relative to DMSO ([1]; 1 uM): 0.8888
- Burkin Assay in Myoblasts, value relative to DMSO ([1]; 5 uM): 1.01
- Burkin Assay in Myoblasts, value relative to DMSO ([1]; 10 uM): 1.022
- Burkin Assay in Myoblasts, value relative to DMSO ([1]; 20 uM): 1
- Burkin Assay in Myoblasts, value relative to DMSO ([1]; 40 uM): 0.6172
- Burkin Assay in Myotubes (signal relative to DMSO) ([2]; 0.5 uM): 0.957
- Burkin Assay in Myotubes (signal relative to DMSO) ([2]; 1 uM): 0.9993
- Burkin Assay in Myotubes (signal relative to DMSO) ([2]; 5 uM): 0.9434
- Burkin Assay in Myotubes (signal relative to DMSO) ([2]; 10 uM): 0.9086
- Burkin Assay in Myotubes (signal relative to DMSO) ([2]; 20 uM): 0.8456
- Burkin Assay in Myotubes (signal relative to DMSO) ([2]; 40 uM): 0.5432
- CMV-LACZ in Myotubes (β-galactosidase activity relative to DMSO) ([3]; 5 uM): 0.9566
- CMV-LACZ in Myotubes (β-galactosidase activity relative to DMSO) ([3]; 10 uM): 1.048
- CMV-LACZ in Myotubes (β-galactosidase activity relative to DMSO) ([3]; 20 uM): 1.122
- CMV-LACZ in Myotubes (β-galactosidase activity relative to DMSO) ([3]; 40 uM): 1.65

Structure (SMILES): O=S(=O)(NCC(c1ccco1)N1CCOCC1)c1ccc(Cl)cc1 (stereo not shown) [MLS000724709-01]
- Burkin Assay in Myoblasts, value relative to DMSO ([1]; 0.5 uM): 0.9899
- Burkin Assay in Myoblasts, value relative to DMSO ([1]; 1 uM): 0.9554
- Burkin Assay in Myoblasts, value relative to DMSO ([1]; 5 uM): 0.7389
- Burkin Assay in Myoblasts, value relative to DMSO ([1]; 10 uM): 0.779
- Burkin Assay in Myoblasts, value relative to DMSO ([1]; 20 uM): 0.486
- Burkin Assay in Myoblasts, value relative to DMSO ([1]; 40 uM): 0.5536
- Burkin Assay in Myotubes (signal relative to DMSO) ([2]; 0.5 uM): 0.9961
- Burkin Assay in Myotubes (signal relative to DMSO) ([2]; 1 uM): 1.467
- Burkin Assay in Myotubes (signal relative to DMSO) ([2]; 5 uM): 1.04
- Burkin Assay in Myotubes (signal relative to DMSO) ([2]; 10 uM): 1.002
- Burkin Assay in Myotubes (signal relative to DMSO) ([2]; 20 uM): 0.885
- Burkin Assay in Myotubes (signal relative to DMSO) ([2]; 40 uM): 0.9768
- CMV-LACZ in Myotubes (β-galactosidase activity relative to DMSO) ([3]; 5 uM): 0.8422
- CMV-LACZ in Myotubes (β-galactosidase activity relative to DMSO) ([3]; 10 uM): 0.8828
- CMV-LACZ in Myotubes (β-galactosidase activity relative to DMSO) ([3]; 20 uM): 1.054
- CMV-LACZ in Myotubes (β-galactosidase activity relative to DMSO) ([3]; 40 uM): 1.125

Structure (SMILES): O=[N+]([O-])c1cccc(S(=O)(=O)N2CCN(S(=O)(=O)N3CCOCC3)CC2)c1 [MLS000912614-01]
- Burkin Assay in Myoblasts, value relative to DMSO ([1]; 0.5 uM): 0.9551
- Burkin Assay in Myoblasts, value relative to DMSO ([1]; 1 uM): 1.088
- Burkin Assay in Myoblasts, value relative to DMSO ([1]; 5 uM): 0.9534
- Burkin Assay in Myoblasts, value relative to DMSO ([1]; 10 uM): 0.94
- Burkin Assay in Myoblasts, value relative to DMSO ([1]; 20 uM): 0.7382
- Burkin Assay in Myoblasts, value relative to DMSO ([1]; 40 uM): 0.7798
- Burkin Assay in Myotubes (signal relative to DMSO) ([2]; 0.5 uM): 1.042
- Burkin Assay in Myotubes (signal relative to DMSO) ([2]; 1 uM): 1.024
- Burkin Assay in Myotubes (signal relative to DMSO) ([2]; 5 uM): 1.103
- Burkin Assay in Myotubes (signal relative to DMSO) ([2]; 10 uM): 1.055
- Burkin Assay in Myotubes (signal relative to DMSO) ([2]; 20 uM): 0.775
- Burkin Assay in Myotubes (signal relative to DMSO) ([2]; 40 uM): 0.7855
- CMV-LACZ in Myotubes, signal relative to DMSO ([3]; 5 uM): 1.018
- CMV-LACZ in Myotubes, signal relative to DMSO ([3]; 10 uM): 1.166
- CMV-LACZ in Myotubes, signal relative to DMSO ([3]; 20 uM): 0.97
- CMV-LACZ in Myotubes, signal relative to DMSO ([3]; 40 uM): 1.012
